Test results published in patent US8778966B2, “Quinolinone derivatives as PARP and tank inhibitors” (Janssen Pharmaceutica, NV, priority 2007, dated 2014).

Legend:
[1] = target: T1, Human PARP-1 enzyme (Homo sapiens, UniProt P09874); test: In vitro Scintillation Proximity Assay (SPA) for PARP-1 inhibitory activity; type: biochemical; conditions: read-out: in vitro SPA assay PARP-1 pIC50 (converted)
T1 construct: purchased Trevigen
How it was run: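 SPA assay: nicked-DNA-activated PARP-1 (0.1–0.2 μg/ml) ADP-ribosylates biotinylated histones (2 μg/ml) using [3H]-NAD+, 20 min at RT in Tris pH 8/DTT/MgCl2, stopped with 2 mM NAD+. Blank-subtracted cpm expressed as % control; IC50 by linear interpolation, reported as pIC50 (10−5 to 3×10−9 M tested).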

[2] = system: HCT116 cells; test: Antiproliferative activity, Alamar Blue assay, HCT116 cells; type: cell-based, human; conditions: Homo sapiens, HCT-116, HCT116 cells; read-out: HCT116 antiproliferative activity pIC50 (converted)
How it was run: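 HCT116 cells seeded, adhered 24 h, then exposed to compound for 4 days; Alamar Blue (resazurin) added for 4 h at 37 °C, fluorescence read at 540/590 nm. Viability as % of untreated control, triplicate wells; IC50 by probit analysis, reported as pIC50.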

T1 sequence (P09874 whole entry): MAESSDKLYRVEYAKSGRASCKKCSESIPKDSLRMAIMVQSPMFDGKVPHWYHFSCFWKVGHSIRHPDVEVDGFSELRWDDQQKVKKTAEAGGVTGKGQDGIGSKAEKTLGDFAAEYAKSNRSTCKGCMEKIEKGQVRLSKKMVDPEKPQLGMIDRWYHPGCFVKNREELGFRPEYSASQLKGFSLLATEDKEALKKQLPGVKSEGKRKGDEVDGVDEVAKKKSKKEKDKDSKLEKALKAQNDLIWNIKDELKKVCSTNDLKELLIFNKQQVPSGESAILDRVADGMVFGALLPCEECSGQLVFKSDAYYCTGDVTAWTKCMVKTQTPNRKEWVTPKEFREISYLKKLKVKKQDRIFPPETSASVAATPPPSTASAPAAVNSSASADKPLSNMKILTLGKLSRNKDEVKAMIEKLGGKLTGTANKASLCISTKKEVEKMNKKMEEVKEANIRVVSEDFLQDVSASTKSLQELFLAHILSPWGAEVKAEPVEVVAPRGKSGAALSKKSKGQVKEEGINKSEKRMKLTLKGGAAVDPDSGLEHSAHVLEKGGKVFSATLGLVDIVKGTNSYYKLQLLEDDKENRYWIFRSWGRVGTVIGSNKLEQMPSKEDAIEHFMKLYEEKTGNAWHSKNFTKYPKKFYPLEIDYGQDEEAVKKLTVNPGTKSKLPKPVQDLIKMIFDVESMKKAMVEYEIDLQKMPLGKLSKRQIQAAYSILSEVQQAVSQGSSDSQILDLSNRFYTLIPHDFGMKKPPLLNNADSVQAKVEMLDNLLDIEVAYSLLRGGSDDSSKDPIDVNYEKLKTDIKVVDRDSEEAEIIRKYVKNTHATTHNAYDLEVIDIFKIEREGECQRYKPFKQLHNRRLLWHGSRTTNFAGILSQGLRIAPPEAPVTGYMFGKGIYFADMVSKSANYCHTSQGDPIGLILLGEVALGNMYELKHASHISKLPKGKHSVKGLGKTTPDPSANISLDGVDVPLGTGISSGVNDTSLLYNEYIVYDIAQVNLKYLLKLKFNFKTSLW

Compound	IC50 [1] [nM]	IC50 [2] [nM]
CCc1cc2ccc(C(C)(C#N)CCOc3ccc(Cl)cc3)cc2[nH]c1=O (stereo not drawn) [Compound 146]	398	398
CCc1cc2ccc(C(C)(C#N)CCOc3ccc(OC)cc3)cc2[nH]c1=O (stereo not drawn) [Compound 147]	158	501
CCc1cc2ccc(C(C)(C#N)CCOc3ccccc3C)cc2[nH]c1=O (stereo not drawn) [Compound 148]	316	316
CCc1cc2ccc(C(C)(C#N)CCOc3ccc(C)cc3)cc2[nH]c1=O (stereo not drawn) [Compound 149]	398	631
CCc1cc2ccc(C(C)(C#N)CCOc3cccc(Cl)c3)cc2[nH]c1=O (stereo not drawn) [Compound 151]	501	631
CCc1cc2ccc(C(C)(C#N)CCOc3ccccc3Cl)cc2[nH]c1=O (stereo not drawn) [Compound 152]	398	631
CCc1cc2ccc(C(C)(C#N)CCOc3ccccc3Br)cc2[nH]c1=O (stereo not drawn) [Compound 153]	316	200
CCc1cc2ccc(C(C)(C#N)CCOc3ccc(Cl)cc3Cl)cc2[nH]c1=O (stereo not drawn) [Compound 154]	1260	398
CCc1cc2ccc(C(C)(C#N)CCOc3ccc(SC)cc3)cc2[nH]c1=O (stereo not drawn) [Compound 155]	501	6310
CCc1cc2ccc(C(C)(C#N)CC3CN(C)c4ccccc4O3)cc2[nH]c1=O (stereo not drawn) [Compound 156]	316	2000
CCc1cc2ccc(C(C)(C#N)CCOc3ccc4ccccc4c3)cc2[nH]c1=O (stereo not drawn) [Compound 157]	1580	1580
CCc1cc2ccc(C(C)(C#N)CCOc3cccc4ccccc34)cc2[nH]c1=O (stereo not drawn) [Compound 158]	1580	1260
CCc1cc2ccc(C(C)(C#N)CCOc3ccccc3C(C)=O)cc2[nH]c1=O (stereo not drawn) [Compound 159]	251	> 10000
CCc1cc2ccc(C(C)(C#N)CCOc3ccc(Br)cc3)cc2[nH]c1=O (stereo not drawn) [Compound 160]	794	2000
CCc1cc2ccc(C(C)(C#N)CCOc3ccc(C#N)cc3)cc2[nH]c1=O (stereo not drawn) [Compound 161]	251	501
CCc1cc2ccc(C(C)(C#N)CCOc3ccc4oc(C)c(C)c4c3)cc2[nH]c1=O (stereo not drawn) [Compound 162]	1000	> 10000
CCc1cc2ccc(C(C)(C#N)CCOc3cccc4c3OCCO4)cc2[nH]c1=O (stereo not drawn) [Compound 163]	1260	398
CCc1cc2ccc(C(C)(C#N)Cc3cccc(CCC#N)c3)cc2[nH]c1=O (stereo not drawn) [Compound 165]	251	631
CCc1cc2ccc(C(C#N)(CCOc3ccccc3)C3CC3)cc2[nH]c1=O (stereo not drawn) [Compound 166]	501	10000
CCc1cc2ccc(C(C)(C#N)CCOc3ccc(C(C)(C)C)cc3)cc2[nH]c1=O (stereo not drawn) [Compound 167]	1580	> 10000
CCc1cc2ccc(C(C)(C#N)CC#Cc3cccc(F)c3)cc2[nH]c1=O (stereo not drawn) [Compound 184]	100	3160
Cc1cc2ccc([C@@](C)(C#N)[C@@H]3CCc4cc(C#N)ccc43)cc2[nH]c1=O [Compound 245]	200	6310
CCc1cc2ccc([C@](C)(C#N)C[C@@H]3CCc4cc(C)ccc4O3)cc2[nH]c1=O [Compound 251]	200	631
CCc1cc2ccc([C@@](C)(C#N)C[C@@H]3CCc4cc(C)ccc4O3)cc2[nH]c1=O [Compound 252]	200	126
CCc1cc2ccc(C(C#N)(CC)CCOc3ccc(C#N)cc3)cc2[nH]c1=O (stereo not drawn) [Compound 271]	100	1580
Cc1cc2ccc([C@@](C)(C#N)[C@H]3CCc4cc(C#N)ccc43)cc2[nH]c1=O [Compound 389]	200	200
CCc1cc2ccc(C(C#N)(CC)C3CCc4ccc(F)cc43)cc2[nH]c1=O (stereo not drawn) [Compound 391]	200	631
